Experimental data from article PMC6135981 (iScience, 2018).

What was measured:
3D intestinal tissue [1] = details: 3D intestine, apical to basal direction
in vitro = details: human
P-gp [2] = target: T1, P-gp (Homo sapiens, UniProt P08183); assay: in vitro; details: Efflux ratio (B to A)/(A to B)
[3] = tested on: prostaglandin E2 secretion; assay: Prostaglandin E2 secretion, 3D intestinal tissue; format: cell-based, human; details: all doses, 24-hr treatment
CYP2C9 = CYP2C9 (Homo sapiens, UniProt P11712)
Sequence of CYP2C9 (P11712 whole entry): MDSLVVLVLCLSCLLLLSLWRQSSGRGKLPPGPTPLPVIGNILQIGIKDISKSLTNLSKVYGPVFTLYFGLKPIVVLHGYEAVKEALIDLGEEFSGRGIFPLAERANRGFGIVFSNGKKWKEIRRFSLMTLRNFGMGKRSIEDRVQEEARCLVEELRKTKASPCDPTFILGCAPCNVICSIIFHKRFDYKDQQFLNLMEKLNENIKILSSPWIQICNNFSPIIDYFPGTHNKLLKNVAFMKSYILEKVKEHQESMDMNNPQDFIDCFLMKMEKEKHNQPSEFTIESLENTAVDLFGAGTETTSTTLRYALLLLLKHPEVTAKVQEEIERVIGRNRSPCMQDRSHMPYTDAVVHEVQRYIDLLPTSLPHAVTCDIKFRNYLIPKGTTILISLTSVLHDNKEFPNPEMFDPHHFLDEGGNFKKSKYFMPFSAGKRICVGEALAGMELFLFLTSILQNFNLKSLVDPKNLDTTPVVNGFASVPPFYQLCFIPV

BCRP = target: T2, BCRP (Homo sapiens, UniProt Q9UNQ0); assay: in vitro; details: Efflux ratio (B to A)/(A to B), 3D intestinal tissue, dual inhibition with Ko143 and zosuquidar
T2 sequence (Q9UNQ0 1-655): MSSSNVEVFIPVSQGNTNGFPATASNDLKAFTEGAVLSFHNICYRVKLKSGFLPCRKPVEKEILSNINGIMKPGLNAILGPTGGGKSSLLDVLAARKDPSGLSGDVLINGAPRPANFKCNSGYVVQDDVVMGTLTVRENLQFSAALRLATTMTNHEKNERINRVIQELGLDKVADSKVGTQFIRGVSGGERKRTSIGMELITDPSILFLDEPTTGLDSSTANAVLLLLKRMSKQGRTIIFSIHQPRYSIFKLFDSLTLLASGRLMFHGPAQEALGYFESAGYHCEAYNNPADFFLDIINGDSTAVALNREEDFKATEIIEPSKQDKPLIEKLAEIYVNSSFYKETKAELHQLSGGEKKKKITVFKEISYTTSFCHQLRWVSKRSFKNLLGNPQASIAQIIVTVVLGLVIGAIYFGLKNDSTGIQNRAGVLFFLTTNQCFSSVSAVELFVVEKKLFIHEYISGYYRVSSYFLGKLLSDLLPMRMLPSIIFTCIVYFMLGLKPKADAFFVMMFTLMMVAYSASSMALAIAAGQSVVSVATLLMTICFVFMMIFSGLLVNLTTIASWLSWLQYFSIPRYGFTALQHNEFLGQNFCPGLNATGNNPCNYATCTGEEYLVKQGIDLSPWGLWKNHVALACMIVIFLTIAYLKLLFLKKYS

P-gp [4] = target: T1, P-gp; details: 3D intestinal tissue
2D Caco-2 monolayers = details: 2D Caco-2 model
3D Caco-2 tissues = details: 3D Caco-2 model
3D intestinal tissue [5] = assay: LDH release after toxicant treatment, 3D intestinal tissue; format: cell-based, human; details: TNF-α for 24 hr
[6] = tested on: TNF-α/nuclear factor (NF)-κB pathway; assay: Gene expression of TNF-α/NF-κB pathway targets, 3D intestinal tissue; format: cell-based, human; details: TNF-α for 24 hr
3D intestinal tissue [7] = format: cell-based, human; details: 24-hr treatment

T1 sequence (P08183 whole entry): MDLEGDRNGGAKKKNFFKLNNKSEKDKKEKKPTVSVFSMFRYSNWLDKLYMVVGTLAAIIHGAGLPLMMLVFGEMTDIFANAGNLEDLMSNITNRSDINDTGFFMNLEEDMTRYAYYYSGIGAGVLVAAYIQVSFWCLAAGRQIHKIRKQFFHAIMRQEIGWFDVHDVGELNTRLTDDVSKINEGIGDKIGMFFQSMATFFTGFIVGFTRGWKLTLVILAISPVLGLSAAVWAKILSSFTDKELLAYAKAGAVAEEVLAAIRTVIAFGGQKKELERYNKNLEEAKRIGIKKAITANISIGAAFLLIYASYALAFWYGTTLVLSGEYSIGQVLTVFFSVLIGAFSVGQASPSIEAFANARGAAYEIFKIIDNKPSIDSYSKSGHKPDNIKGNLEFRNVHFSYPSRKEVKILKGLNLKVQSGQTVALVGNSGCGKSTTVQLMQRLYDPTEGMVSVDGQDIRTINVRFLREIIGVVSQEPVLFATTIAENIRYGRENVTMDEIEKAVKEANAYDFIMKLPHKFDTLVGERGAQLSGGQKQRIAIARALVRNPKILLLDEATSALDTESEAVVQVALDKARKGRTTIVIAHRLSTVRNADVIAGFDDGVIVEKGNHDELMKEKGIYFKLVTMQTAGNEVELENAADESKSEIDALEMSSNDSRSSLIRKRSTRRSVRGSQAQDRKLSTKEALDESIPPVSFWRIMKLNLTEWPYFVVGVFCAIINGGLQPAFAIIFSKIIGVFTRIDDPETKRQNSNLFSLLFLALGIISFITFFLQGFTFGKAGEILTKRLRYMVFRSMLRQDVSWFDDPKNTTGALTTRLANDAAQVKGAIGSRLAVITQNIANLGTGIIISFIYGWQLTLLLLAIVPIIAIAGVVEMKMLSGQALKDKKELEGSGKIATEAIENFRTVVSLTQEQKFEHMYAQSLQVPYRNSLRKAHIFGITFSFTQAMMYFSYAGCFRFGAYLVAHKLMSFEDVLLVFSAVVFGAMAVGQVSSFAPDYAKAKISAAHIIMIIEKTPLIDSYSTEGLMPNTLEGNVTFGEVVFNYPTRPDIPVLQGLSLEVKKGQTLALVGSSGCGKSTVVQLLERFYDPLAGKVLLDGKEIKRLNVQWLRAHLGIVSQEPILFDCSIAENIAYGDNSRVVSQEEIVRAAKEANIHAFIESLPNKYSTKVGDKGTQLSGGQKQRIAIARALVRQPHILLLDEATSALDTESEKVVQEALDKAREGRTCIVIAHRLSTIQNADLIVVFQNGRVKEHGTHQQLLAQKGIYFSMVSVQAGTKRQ

C[C@H]1O[C@@H](O[C@H]2[C@@H](O)C[C@H](O[C@H]3[C@@H](O)C[C@H](O[C@H]4CC[C@@]5(C)[C@H](CC[C@@H]6[C@@H]5C[C@@H](O)[C@]5(C)[C@@H](C7=CC(=O)OC7)CC[C@]65O)C4)O[C@@H]3C)O[C@@H]2C)C[C@H](O)[C@@H]1O [digoxin]
Permeability class (3D intestinal tissue [1]): moderate
Papp (in vitro): 8.53 ± 2.02 ×10⁻⁶ cm/s
efflux ratio (P-gp [2]): > 2

COc1ccc2c(c1)c(CC(=O)O)c(C)n2C(=O)c1ccc(Cl)cc1 [indomethacin]
Prostaglandin E2 secretion [3]: inhibition of prostaglandin E2 secretion

CC(=O)N1CCN(c2ccc(OCC3COC(Cn4ccnc4)(c4ccc(Cl)cc4Cl)O3)cc2)CC1 (centres unmarked) [ketoconazole]
Effect on CYP3A4 activity (midazolam metabolite formation) (CYP3A4): specific inhibition

O=C1c2c(O)ccc(O)c2C(=O)c2c(NCCNCCO)ccc(NCCNCCO)c21 [mitoxantrone]
Papp (in vitro): 0.2 ± 0.03 ×10⁻⁶ cm/s

CC(C)NCC(O)COc1cccc2ccccc12 (centres unmarked) [propranolol]
Permeability class (3D intestinal tissue [1]): high
Papp (in vitro): 14.8 ± 1.96 ×10⁻⁶ cm/s

Nc1ccc(S(=O)(=O)Nc2ccnn2-c2ccccc2)cc1 [sulfaphenazole]
Effect on CYP2C9 activity (luminogenic P450 substrate conversion) (CYP2C9): significantly inhibited

CC[C@@]1(O)C(=O)OCc2c1cc1n(c2=O)Cc2cc3c(CN(C)C)c(O)ccc3nc2-1 [topotecan]
Permeability class (3D intestinal tissue [1]): moderate
Papp (in vitro): 3.1 ± 0.63 ×10⁻⁶ cm/s
efflux ratio (BCRP): 1.4

O[C@@H](COc1cccc2ncccc12)CN1CCN([C@@H]2c3ccccc3[C@@H]3[C@H](c4ccccc42)C3(F)F)CC1 [zosuquidar]
Effect on B to A transport of digoxin (P-gp [4]): decreased the rate of B to A transport

lucifer yellow
Papp (2D Caco-2 monolayers): 0.46 ± 0.25 ×10⁻⁶ cm/s
Permeability (Papp) (IMF tissue alone): 163 ± 29 ×10⁻⁶ cm/s
Papp (3D Caco-2 tissues): 1.05 ± 0.1 ×10⁻⁶ cm/s
Papp (3D intestinal tissue [1]): 0.45 ± 1.5 ×10⁻⁶ cm/s

tumor necrosis factor alpha [TNF-α]
LDH release (3D intestinal tissue [5]): significant increase
Gene expression of IL-6, IL-8, CCL2, CXCL10, ICAM1, and TNF-α [6]: upregulated
Epithelial morphology (histology) (3D intestinal tissue [7]): altered the epithelial morphology
